Here are results for one compound from US20030124105A1, “PROGRAMMED CELL DEATH GENES AND PROTEINS” (priority 1993, published 2003).

The subject of one experiment is HeLa cells. The experiment is classed as cell-based, human.
A further experiment relates to HeLa/crmA cells. The following applies: CHX 20 μg/ml, TNF-a 5 ng/ml, 24 h, trypan blue dye exclusion, mean ± SEM.

Method for HeLa/crmA cells: Dosage response of HeLa and HeLa/crmA cells to TNF-α treatment was tested as follows. Cells were seeded in DMEM plus 10% fetal calf serum in a 24-well plate at a density of 4×10^4 cells per well. After overnight incubation, the cells were washed twice with serum-free DMEM. Drugs were then added to a total volume of 0.2 ml of serum-free DMEM and the cells were incubated for 24 hours. Cells were then trypsinized and dead cells scored on a hemocytometer by trypan blue exclusion (Sigma, St. Louis, Mo.). At least 200 cells were scored per well. Each concentration was tested in duplicate each time.
The effect of crmA expression on TNF-induced apoptosis was tested. […] HeLa cells or HeLa/crmA cells were treated with cycloheximide (CHX) (20 μg/ml, Sigma), TNF-α (5 ng/ml, Sigma), or a combination of both drugs. […] Control HeLa and HeLa/crmA cells were tested for the ability to resist increasing amounts of TNF-α in the presence of 10 μg/ml CHX (FIG. 18). […] The dose response of crmA-expressing HeLa cells to increasing amounts of TNF-α in the presence of 10 μg/ml of CHX was tested.

With `C[C@@H]1C[C@@H]([C@H](O)CC2CC(=O)NC(=O)C2)C(=O)[C@@H](C)C1` [CHX, cycloheximide], the “% dead cells” value was 2.9 ± 0.7% in the experiment on HeLa cells and 3.8 ± 0.5% with HeLa/crmA cells.
